Assay results taken from patent US8933079B2, “Pyridone and pyridazinone derivatives as anti-obesity agents” (Boehringer Ingelheim International GmbH, priority 2012, dated 2015).

Biological target: hMCH-1R (Homo sapiens (Human), UniProt Q99705)
Test: MCH-1 receptor binding test (125I-MCH binding to hMCH-1R transfected cell membranes)
Settings: competition with 100 pM 125I-MCH, membranes of CHO/Galpha16 cells stably transfected with hMCH-1R
Experimental: Res Commun. […] After the incubation the reaction is filtered using a cell harvester through 0.5% PEI treated fibreglass filters (GF/B, Unifilter Packard). The membrane-bound radioactivity retained on the filter is then determined after the addition of scintillator substance (Packard Microscint 20) in a measuring device (TopCount of Packard). […] The analysis of the concentration binding curve is carried out on the assumption of one receptor binding site.

Sequence of hMCH-1R (Q99705 whole entry): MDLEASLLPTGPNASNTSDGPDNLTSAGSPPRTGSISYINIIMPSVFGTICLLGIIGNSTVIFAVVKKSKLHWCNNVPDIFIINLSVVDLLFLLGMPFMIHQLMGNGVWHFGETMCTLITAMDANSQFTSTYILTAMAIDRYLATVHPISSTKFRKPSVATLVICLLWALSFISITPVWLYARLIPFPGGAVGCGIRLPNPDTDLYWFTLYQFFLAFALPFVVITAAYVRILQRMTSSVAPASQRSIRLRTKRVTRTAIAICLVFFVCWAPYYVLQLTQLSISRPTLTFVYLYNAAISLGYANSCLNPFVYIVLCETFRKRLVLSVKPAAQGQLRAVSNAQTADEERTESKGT

Row | SMILES | IC50
1 | Cc1cc(CN2CCCC[C@@H]2CO)ccc1C(=O)Cn1ccc(OCc2ccc(Br)cn2)cc1=O [Example 4.7, (R)-4-(5-Bromo-pyridin-2-ylmethoxy)-1-{2-[4-(2-hydroxymethyl-piperidin-1-ylmethyl)-2-methyl-phenyl]-2-oxo-ethyl}-1H-pyridin-2-one] | 0.014 µM
2 | CCN1CCN(Cc2ccc(C(=O)Cn3ccc(OCc4ccc(Br)cn4)cc3=O)c(C)c2)CC1 [Example 4.10] | 0.053 µM
3 | CCN1CCN(Cc2ccc(C(=O)Cn3ccc(OCc4ccc(Cl)cn4)cc3=O)c(C)c2)CC1 [Example 3.1, 4-(5-Chloro-pyridin-2-ylmethoxy)-1-{2-[4-(4-ethyl-piperazin-1-ylmethyl)-2-methyl-phenyl]-2-oxo-ethyl}-1H-pyridin-2-one] | 0.079 µM
4 | COc1ccc(COc2ccn(CC(=O)c3ccc(CN(C)C)cc3C)c(=O)c2)nc1 [Example 11.2] | 0.057 µM
5 | Cc1cc(CN2CCC(C)(O)C2)ccc1C(=O)Cn1ccc(OCc2ccccc2)cc1=O (centres unmarked) [Example 1.10, 4-Benzyloxy-1-{2-[4-(3-hydroxy-3-methyl-pyrrolidin-1-ylmethyl)-2-methyl-phenyl]-2-oxo-ethyl}-1H-pyridin-2-one] | 0.026 µM
6 | Cc1cc(CN2CC[C@@H](O)C2)ccc1C(=O)Cn1ccc(OCc2ccc(Cl)cn2)cc1=O [Example 3.4, (R)-4-(5-Chloro-pyridin-2-ylmethoxy)-1-{2-[4-(3-hydroxy-pyrrolidin-1-ylmethyl)-2-methyl-phenyl]-2-oxo-ethyl}-1H-pyridin-2-one] | 0.038 µM
7 | CNCc1ccc(C(=O)Cn2ccc(OCc3ccccc3)cc2=O)c(C)c1 [Example 1.2, 4-Benzyloxy-1-[2-(2-methyl-4-methylaminomethyl-phenyl)-2-oxo-ethyl]-1H-pyridin-2-one] | 0.019 µM
8 | Cc1cc(CN2CCCC2)ccc1C(=O)Cn1ccc(OCc2ccc(Br)cn2)cc1=O [Example 4.8, 4-(5-Bromo-pyridin-2-ylmethoxy)-1-[2-(2-methyl-4-pyrrolidin-1-ylmethyl-phenyl)-2-oxo-ethyl]-1H-pyridin-2-one] | 0.017 µM
9 | CCNCc1ccc(C(=O)Cn2ccc(OCc3ccc(OC)cn3)cc2=O)c(C)c1 [Example 11.4] | 0.054 µM
10 | Cc1cc(CN(C)C)ccc1C(=O)Cn1ccc(OCc2ccc(F)cn2)cc1=O [Example 2.5] | 0.07 µM
11 | Cc1cc(CN2CCC(O)CC2)ccc1C(=O)Cn1ccc(OCc2ccc(F)cn2)cc1=O [Example 2.3] | 0.093 µM
12 | Cc1cc(CN(C)C(C)C)ccc1C(=O)Cn1ccc(OCc2ccc(Br)cn2)cc1=O [Example 4.17, 4-(5-Bromo-pyridin-2-ylmethoxy)-1-(2-{4-[(isopropyl-methyl-amino)-methyl]-2-methyl-phenyl}-2-oxo-ethyl)-1H-pyridin-2-one] | 0.018 µM
13 | Cc1cc(CN2CCCCC2)ccc1C(=O)Cn1ccc(OCc2ccc(Br)cn2)cc1=O [Example 4.16] | 0.012 µM
14 | Cc1cc(CN2CCN(C)CC2)ccc1C(=O)Cn1ccc(OCc2ccccc2)cc1=O [Example 1.5, 4-Benzyloxy-1-{2-[2-methyl-4-(4-methyl-piperazin-1-ylmethyl)-phenyl]-2-oxo-ethyl}-1H-pyridin-2-one] | 0.048 µM
15 | Cc1cc(CN2CC[C@H](O)C2)ccc1C(=O)Cn1ccc(OCc2ccc(F)cn2)cc1=O [Example 2.4] | 0.07 µM
16 | Cc1cc(CN2CCC(O)CC2)ccc1C(=O)Cn1ccc(OCc2ccc(Br)cn2)cc1=O [Example 4.2, 4-(5-Bromo-pyridin-2-ylmethoxy)-1-{2-[4-(4-hydroxy-piperidin-1-ylmethyl)-2-methyl-phenyl]-2-oxo-ethyl}-1H-pyridin-2-one] | 0.016 µM
17 | Cc1cc(CN2CCC[C@H]2CO)ccc1C(=O)Cn1ccc(OCc2ccc(Br)cn2)cc1=O [Example 4.5, (S)-4-(5-Bromo-pyridin-2-ylmethoxy)-1-{2-[4-(2-hydroxymethyl-pyrrolidin-1-ylmethyl)-2-methyl-phenyl]-2-oxo-ethyl}-1H-pyridin-2-one] | 0.013 µM
18 | Cc1cc(CN2CCC[C@@H](O)C2)ccc1C(=O)Cn1ccc(OCc2ccc(Cl)cn2)cc1=O [Example 3.13, (R)-4-(5-Chloro-pyridin-2-ylmethoxy)-1-{2-[4-(3-hydroxy-piperidin-1-ylmethyl)-2-methyl-pheny]-2-oxo-ethyl}-1H-pyridin-2-one] | 0.034 µM
19 | CCNCc1ccc(C(=O)Cn2ccc(OCc3ccccc3)cc2=O)c(C)c1 [Example 1.12, 4-Benzyloxy-1-[2-(4-ethylaminomethyl-2-methyl-phenyl)-2-oxo-ethyl]-1H-pyridin-2-one] | 0.021 µM
20 | Cc1cc(CN2CC(O)C2)ccc1C(=O)Cn1ccc(OCc2ccc(Cl)cn2)cc1=O [Example 3.15, 4-(5-Chloro-pyridin-2-ylmethoxy)-1-{2-[4-(3-hydroxy-azetidin-1-ylmethyl)-2-methyl-phenyl]-2-oxo-ethyl}-1H-pyridin-2-one] | 0.031 µM
21 | Cc1cc(CN2CCC[C@H]2CO)ccc1C(=O)Cn1ccc(OCc2ccccc2)cc1=O [Example 1.17, (S)-4-Benzyloxy-1-{2-[4-(2-hydroxymethyl-pyrrolidin-1-ylmethyl)-2-methyl-phenyl]-2-oxo-ethyl}-1H-pyridin-2-one] | 0.026 µM
22 | CNCc1ccc(C(=O)Cn2ccc(OCc3ccc(Br)cn3)cc2=O)c(C)c1 [Example 4.13, 4-(5-Bromo-pyridin-2-ylmethoxy)-1-[2-(2-methyl-4-methylaminomethyl-phenyl)-2-oxo-ethyl]-1H-pyridin-2-one] | 0.026 µM
23 | Cc1cc(CN2CC[C@@H](O)C2)ccc1C(=O)Cn1ccc(OCc2ccccc2)cc1=O [Example 1.14] | 0.053 µM

Further lines, results first:

Row | IC50 | SMILES
24 | 0.071 µM | CCN1CCN(Cc2ccc(C(=O)Cn3ncc(OCc4ccc(Cl)cn4)cc3=O)c(C)c2)CC1 [Example 7.2]
25 | 0.067 µM | Cc1cc(CN2CCN(C)CC2)ccc1C(=O)Cn1ncc(OCc2ccc(Cl)cn2)cc1=O [Example 7.4]
26 | 0.032 µM | Cc1cc(CN2CC[C@@H](O)C2)ccc1C(=O)Cn1ncc(OCc2ccc(Cl)cn2)cc1=O [Example 7.9]
27 | 0.058 µM | Cc1cc(CN2CCC(O)CC2)ccc1C(=O)Cn1ncc(OCc2ccc(F)cn2)cc1=O [Example 6.4]
28 | 0.013 µM | Cc1cc(CN2CCCC[C@@H]2CO)ccc1C(=O)Cn1ncc(OCc2ccccc2)cc1=O [Example 5.12, (R)-5-Benzyloxy-2-{2-[4-(2-hydroxymethyl-piperidin-1-ylmethyl)-2-methyl-phenyl]-2-oxo-ethyl}-2H-pyridazin-3-one]
29 | 0.018 µM | Cc1cc(CN2CCC(O)CC2)ccc1C(=O)Cn1ncc(OCc2ccc(Br)cn2)cc1=O [Example 8.9, 5-(5-Bromo-pyridin-2-ylmethoxy)-2-{2-[4-(4-hydroxy-piperidin-1-ylmethyl)-2-methyl-phenyl]-2-oxo-ethyl}-2H-pyridazin-3-one]
30 | 0.038 µM | Cc1cc(CN2CCCC2)ccc1C(=O)Cn1ncc(OCc2ccc(F)cn2)cc1=O [Example 6.1, 5-(5-Fluoro-pyridin-2-ylmethoxy)-2-[2-(2-methyl-4-pyrrolidin-1-ylmethyl-phenyl)-2-oxo-ethyl]-2H-pyridazin-3-one]
31 | 0.025 µM | COc1ccc(COc2cnn(CC(=O)c3ccc(CN4CCCC4)cc3C)c(=O)c2)nc1 [Example 9.3, 5-(5-Methoxy-pyridin-2-ylmethoxy)-2-[2-(2-methyl-4-pyrrolidin-1-ylmethyl-phenyl)-2-oxo-ethyl]-2H-pyridazin-3-one]
32 | 0.019 µM | Cc1cc(CN2CC(O)C2)ccc1C(=O)Cn1ncc(OCc2ccc(Br)cn2)cc1=O [Example 8.2, 5-(5-Bromo-pyridin-2-ylmethoxy)-2-{2-[4-(3-hydroxy-azetidin-1-ylmethyl)-2-methyl-phenyl]-2-oxo-ethyl}-2H-pyridazin-3-one]
33 | 0.026 µM | Cc1cc(CN2CCC[C@H]2CO)ccc1C(=O)Cn1ncc(OCc2ccc(Cl)cn2)cc1=O [Example 7.1, (S)-5-(5-Chloro-pyridin-2-ylmethoxy)-2-{2-[4-(2-hydroxymethyl-pyrrolidin-1-ylmethyl)-2-methyl-phenyl]-2-oxo-ethyl}-2H-pyridazin-3-one]
34 | 0.024 µM | Cc1cc(CN(C)C)ccc1C(=O)Cn1ncc(OCc2ccc(Cl)cn2)cc1=O [Example 7.16, 5-(5-Chloro-pyridin-2-ylmethoxy)-2-[2-(4-dimethylaminomethyl-2-methyl-phenyl)-2-oxo-ethyl]-2H-pyridazin-3-one]
35 | 0.035 µM | Cc1cc(CN2CCCC[C@@H]2CO)ccc1C(=O)Cn1ncc(OCc2ccc(Cl)cn2)cc1=O [Example 7.13, (R)-5-(5-Chloro-pyridin-2-ylmethoxy)-2-{2-[4-(2-hydroxymethyl-piperidin-1-ylmethyl)-2-methyl-phenyl]-2-oxo-ethyl}-2H-pyridazin-3-one]
36 | 0.013 µM | Cc1cc(CN2CCC[C@H](O)C2)ccc1C(=O)Cn1ncc(OCc2ccccc2)cc1=O [Example 5.13, (S)-5-Benzyloxy-2-{2-[4-(3-hydroxy-piperidin-1-ylmethyl)-2-methyl-phenyl]-2-oxo-ethyl}-2H-pyridazin-3-one]
37 | 0.03 µM | Cc1cc(CN2CC[C@H](O)C2)ccc1C(=O)Cn1ncc(OCc2ccc(Cl)cn2)cc1=O [Example 7.12]
38 | 0.053 µM | COc1ccc(COc2ccn(CC(=O)c3ccc(CN4CCC(O)CC4)cc3C)c(=O)c2)nc1 [Example 11.1, 1-{2-[4-(4-Hydroxy-piperidin-1-ylmethyl)-2-methyl-phenyl]-2-oxo-ethyl}-4-(5-methoxy-pyridin-2-ylmethoxy)-1H-pyridin-2-one]
39 | 0.027 µM | Cc1cc(CN2CC(O)C2)ccc1C(=O)Cn1ncc(OCc2ccc(Cl)cn2)cc1=O [Example 7.3]
40 | 0.031 µM | Cc1cc(CN2CCC[C@@H](O)C2)ccc1C(=O)Cn1ncc(OCc2ccc(Cl)cn2)cc1=O [Example 7.11]
41 | 0.014 µM | Cc1cc(CN2CCC[C@@H](O)C2)ccc1C(=O)Cn1ncc(OCc2ccccc2)cc1=O [Example 5.1, (R)-5-Benzyloxy-2-{2-[4-(3-hydroxy-piperidin-1-ylmethyl)-2-methyl-phenyl]-2-oxo-ethyl}-2H-pyridazin-3-one]
